Test results reported in patent US9765018B2, “IDO inhibitors” (BRISTOL-MYERS SQUIBB COMPANY, priority 2013, dated 2017).

Experiments:
[1] = molecular target: T1, IDO (Homo sapiens (Human), UniProt P14902); assay: Kynurenine assay in IFN-γ-stimulated Hela cells; format: cell-based; conditions: 20 h, read-out: Hela Kyurenine (IC50)
In short: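 Hela cells adhered 5-6 h, then received inhibitor (top dose 30 μM, 3-fold dilutions to 1.5 nM) plus 100 ng/mL human IFN-γ to induce IDO, 20 h at 37° C. TCA added, 30 min at 50° C hydrolyses N-formylkynurenine to kynurenine. Supernatant mixed with Ehrlich reagent, 10 min RT, absorbance 490 nm.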

[2] = molecular target: T1, IDO; assay: LLE_IDO_ABS_DR (IDO assay, method not described)

T1 sequence (P14902 whole entry): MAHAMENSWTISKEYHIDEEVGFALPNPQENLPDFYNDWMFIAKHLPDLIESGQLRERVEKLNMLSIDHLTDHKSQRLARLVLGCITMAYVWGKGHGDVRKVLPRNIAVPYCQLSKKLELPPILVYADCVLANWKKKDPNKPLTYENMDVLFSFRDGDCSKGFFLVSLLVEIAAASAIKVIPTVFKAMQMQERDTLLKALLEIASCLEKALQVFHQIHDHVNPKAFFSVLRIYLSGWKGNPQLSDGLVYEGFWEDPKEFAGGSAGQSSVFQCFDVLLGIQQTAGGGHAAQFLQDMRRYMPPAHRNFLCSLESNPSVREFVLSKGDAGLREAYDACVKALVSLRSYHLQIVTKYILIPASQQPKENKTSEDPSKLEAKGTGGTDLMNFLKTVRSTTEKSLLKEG

| IC50 [1] [µM] | IC50 [2] [µM] | Compound |
| --- | --- | --- |
| 0.13 | 0.39 | CCc1ccccc1Oc1ccc(-c2ccc(OC)c(C(=O)O)c2)cc1NC(=O)Nc1cccc(C)c1 [Example 57, 4′-(2-ethylphenoxy)-4-methoxy-3′-(3-m-tolylureido)biphenyl-3-carboxylic acid] |
| 0.71 | 7.19 | COc1ccc(-c2ccc(Oc3cccc4c3CCCC4=O)c(NC(=O)Nc3ccccc3C)c2)cc1C(=O)O [Example 150, 4-methoxy-4′-(5-oxo-5,6,7,8-tetrahydronaphthalen-1-yloxy)-3′-(3-o-tolylureido)biphenyl-3-carboxylic acid] |
| 2.12 | 3.68 | Cc1cccc(NC(=O)Nc2cc(-c3ccccc3C(=O)O)ccc2Oc2ccccc2C(C)(C)C)c1 [Example 157, 4′-(2-tert-butylphenoxy)-3′-(3-m-tolylureido)biphenyl-2-carboxylic acid] |
| 0.34 | 1.21 | CCCCNC(=O)Nc1cc(-c2ccccc2-c2nnn[nH]2)ccc1Oc1ccccc1C(C)(C)C [Example 191, 1-butyl-3-(4-(2-tert-butylphenoxy)-2′-(1H-tetrazol-5-yl)biphenyl-3-yl)urea] |
| 0.16 | 0.47 | COc1ccc(-c2ccc(Oc3ccccc3C(C)(C)C)c(NC(=O)Nc3ccc(C)cc3)c2)c(C(=O)O)c1 [Example 163, 4′-(2-tert-butylphenoxy)-4-methoxy-3′-(3-p-tolylureido)biphenyl-2-carboxylic acid] |
| 0.7 | 3.94 | Cc1ccc(NC(=O)Nc2cc(-c3cc(Cl)cc(C(=O)O)c3)ccc2Oc2ccccc2C(C)(C)C)cc1 [Example 246, 4′-(2-tert-butylphenoxy)-5-chloro-3′-(3-p-tolylureido) biphenyl-3-carboxylic acid] |
| 0.36 | 1.24 | O=C(Nc1ccc(Cl)cc1)Nc1cc(-c2ccccc2-c2nnn[nH]2)ccc1Oc1cccc2c1CCCC2 [Example 189, 1-(4-chlorophenyl)-3-(4-(5,6,7,8-tetrahydronaphthalen-1-yloxy)-2′-(1H-tetrazol-5-yl)biphenyl-3-yl)urea] |
| 0.3 | 1.83 | CC(C)(C)c1ccccc1Oc1ccc(-c2ccc(C(=O)O)c(Cl)c2)cc1NC(=O)Nc1ccccc1Cl [Example 215, 4′-(2-tert-butylphenoxy)-3-chloro-3′-(3-(2-chlorophenyl)ureido)biphenyl-4-carboxylic acid] |
| 0.11 | 0.39 | COc1ccc(-c2ccc(Oc3cccc(C)c3C)c(NC(=O)Nc3ccccc3C)c2)cc1C(=O)O [Example 121, 4′-(2,3-dimethylphenoxy)-4-methoxy-3′-(3-o-tolylureido)biphenyl-3-carboxylic acid] |
| 0.92 | 1.06 | CCCNC(=O)Nc1cc(-c2ccc(OC)c(C(=O)O)c2)ccc1Oc1cccc2c1CCCC2 [Example 118, 4-methoxy-3′-(3-propylureido)-4′-(5,6,7,8-tetrahydronaphthalen-1-yloxy)biphenyl-3-carboxylic acid] |
| 1.25 | 2.24 | COc1ccc(-c2ccc(Oc3ccccc3C(C)(C)C)c(NC(=O)Nc3ccccc3C)c2)c(C(=O)O)c1 [Example 162, 4′-(2-tert-butylphenoxy)-4-methoxy-3′-(3-o-tolylureido)biphenyl-2-carboxylic acid] |
| 0.13 | 2.05 | COc1ccc(-c2ccc(Oc3cccc(C(C)(C)C)c3)c(NC(=O)Nc3ccccc3Cl)c2)cc1C(=O)O [Example 110, 4′-(3-tert-butylphenoxy)-3′-(3-(2-chlorophenyl)ureido)-4-methoxybiphenyl-3-carboxylic acid] |
| 0.05 | 0.24 | Cc1ccc(NC(=O)Nc2cc(-c3ccc(Cl)cc3C(=O)O)ccc2Oc2ccccc2C(C)(C)C)cc1 [Example 161, 4′-(2-tert-butylphenoxy)-4-chloro-3′-(3-p-tolylureido)biphenyl-2-carboxylic acid] |
| 0.59 | 2.63 | COc1ccc(-c2ccc(Oc3ccccc3Cl)c(NC(=O)Nc3ccccc3Cl)c2)cc1C(=O)O [Example 49, 4′-(2-chlorophenoxy)-3′-(3-(2-chlorophenyl)ureido)-4-methoxybiphenyl-3-carboxylic acid] |
| 0.17 | 0.73 | COc1ccc(-c2ccc(Oc3ccccc3C3CC3)c(NC(=O)Nc3ccccc3C)c2)cc1C(=O)O [Example 125, 4′-(2-cyclopropylphenoxy)-4-methoxy-3′-(3-o-tolylureido)biphenyl-3-carboxylic acid] |
| 0.4 | 0.52 | CCCc1ccccc1Oc1ccc(-c2ccc(OC)c(C(=O)O)c2)cc1NC(=O)Nc1ccccc1Cl [Example 74, 3′-(3-(2-chlorophenyl)ureido)-4-methoxy-4′-(2-propylphenoxy)biphenyl-3-carboxylic acid] |
| 0.18 | 0.43 | COc1ccc(-c2ccc(Oc3cccc(C(C)(C)C)c3)c(NC(=O)Nc3ccccc3C)c2)cc1C(=O)O [Example 111, 4′-(3-tert-butylphenoxy)-4-methoxy-3′-(3-o-tolylureido)biphenyl-3-carboxylic acid] |
| 0.16 | 0.68 | Cc1ccc(NC(=O)Nc2cc(-c3ccccc3-c3nnn[nH]3)ccc2Oc2cccc3c2CCCC3)cc1 [Example 185, 1-(4-(5,6,7,8-tetrahydronaphthalen-1-yloxy)-2′-(1H-tetrazol-5-yl)biphenyl-3-yl)-3-p-tolylurea] |
| 0.99 | 1.46 | COc1ccc(-c2ccc(O[C@@H]3CCCC[C@H]3C)c(NC(=O)Nc3ccccc3Cl)c2)cc1C(=O)O (relative stereo) [Example 132, 3′-(3-(2-chlorophenyl)ureido)-4-methoxy-4′-((trans)-2-methylcyclohexyloxy)biphenyl-3-carboxylic acid] |
| 0.87 | 3.47 | Cc1ccccc1NC(=O)Nc1cc(-c2ccc(Cl)cc2C(=O)O)ccc1Oc1ccccc1C(C)(C)C [Example 159, 4′-(2-tert-butylphenoxy)-4-chloro-3′-(3-o-tolylureido)biphenyl-2-carboxylic acid] |
| 0.28 | 0.33 | COc1ccc(-c2ccc(Oc3ccccc3C(C)(C)C)c(NC(=O)Nc3ccccc3Cl)c2)c(C(=O)O)c1 [Example 164, 4′-(2-tert-butylphenoxy)-3′-(3-(2-chlorophenyl)ureido)-4-methoxybiphenyl-2-carboxylic acid] |
| 0.44 | 1.25 | Cc1ccc(NC(=O)Nc2cc(-c3ccc(C(=O)O)c(Cl)c3)ccc2Oc2ccccc2C(C)(C)C)cc1 [Example 257, 4′-(2-tert-butylphenoxy)-3-chloro-3′-(3-p-tolylureido) biphenyl-4-carboxylic acid] |
| 0.68 | 2.64 | COc1ccc(-c2ccc(Oc3cccc4c3OC(C)(C)C4)c(NC(=O)Nc3ccccc3C)c2)cc1C(=O)O [Example 139, 4′-(2,2-dimethyl-2,3-dihydrobenzofuran-7-yloxy)-4-methoxy-3′-(3-o-tolylureido)biphenyl-3-carboxylic acid] |
| 0.82 | 1.59 | COc1ccc(-c2ccc(Oc3ccccc3C(C)(C)C)c(NC(=O)Nc3ccc(OC(F)(F)F)cc3)c2)cc1C(=O)O [Example 66, 4′-(2-tert-butylphenoxy)-4-methoxy-3′-(3-(4-(trifluoromethoxy)phenyl)ureido)biphenyl-3-carboxylic acid] |
